Measurements published in PMC2584942, “Phase I dose escalation study of telatinib (BAY 57-9352) in patients with advanced solid tumours” (British Journal of Cancer, 2008).
Where two headings read alike, the source gives them in different places.

Assays:
[1] = Plasma pharmacokinetics of telatinib and metabolite BAY 60-8246 (LC-MS-MS, non-compartmental); type: in vivo, human; settings: for half-life / Tmax / Cmax / AUC(0-t) / AUC: human; for AUC(0-t): read-out: AUC0–12; for AUC: read-out: AUC0–tn
Procedure: Patients with at least one valid pharmacokinetic profile were valid for the pharmacokinetic analysis. Plasma samples were collected at predose and 0.5, 1, 2, 3, 4, 6, 8, and 12 h postdose on day 1 and day 14 of cycle 1 and were analysed for BAY 57-9352 and its demethylated metabolite M-2, BAY 60-8246, using a validated LC-MS-MS analytical method.
Plasma pharmacokinetic parameters, area under the curve from time 0–12 h after dosing (AUC0−12), area under the curve from time 0 to last data point (AUC0−tn), maximum plasma concentration (Cmax), and time to maximum plasma concentration (tmax) of telatinib and its metabolite (BAY 60-8246) as well as half-life of telatinib were calculated by non-compartmental methods using WinNonlin version 4.1.a (Pharsight Corporation). The linear-logarithmic trapezoidal rule was used for calculating AUC. Half-life was calculated by linear least squares regression after logarithmic transformation of the terminal concentrations. Pharmacokinetic parameters were analysed using descriptive statistics.

[2] = design: method as in printed; settings: in vitro studies; background statement, ref not given; cited from earlier work
[3] = tested on: VEGFR-2; design: method as in printed; settings: biochemical assay; background statement, ref not given; cited from earlier work
[4] = tested on: p-glycoprotein transporter; design: method as in printed; settings: in vitro studies; background statement, ref not given; cited from earlier work
[5] = tested on: PDGFR-β; design: method as in printed; settings: biochemical assay; background statement, ref not given; cited from earlier work
[6] = tested on: DLD-1 colon carcinoma; design: method as in printed; settings: DLD-1 colon carcinoma model; background statement, ref not given; cited from earlier work
[7] = tested on: sVEGFR-2; test: Plasma sVEGFR-2 concentration (ELISA); type: in vivo, human; settings: over the course of the study
Procedure: (§1) The effects of telatinib treatment on the plasma concentrations of sVEGFR-2, VEGF and bFGF were determined from blood samples taken at baseline, on day 14 of cycles 1, 2, 4, 6, etc. and at the final visit. Samples were analysed using the relevant quantitative enzyme-linked immunosorbent assay (ELISA) (R&D Systems Europe, Oxford, UK) according to the manufacturer's instructions. DCE-MRI was performed at baseline, on day 2 (only cycle 1), and on day 14 of cycles 1–3 to assess tumour blood flow/tumour vessel permeability in a subgroup of patients ([Morgan et al, 2003]).
(§2) To assess the biological activity of telatinib, plasma concentration analyses for the angiogenic markers VEGF, sVEGFR-2, bFGF, PDGF and […] were performed at baseline and during the course of the study. Furthermore, DCE-MRI measurements were done at baseline, on days 2 and 14 of cycle 1 and on day 14 of cycles 2 and 3. Evaluable DCE-MRI results were available for a subgroup of patients treated at dose levels of 300 mg BID or higher.

[8] = tested on: VEGF; test: Plasma VEGF concentration (ELISA); type: in vivo, human
Procedure: […] Samples were analysed using the relevant quantitative enzyme-linked immunosorbent assay (ELISA) (R&D Systems Europe, Oxford, UK) according to the manufacturer's instructions. DCE-MRI was performed at baseline, on day 2 (only cycle 1), and on day 14 of cycles 1–3 to assess tumour blood flow/tumour vessel permeability in a subgroup of patients ([Morgan et al, 2003]).
as §2

[9] = tested on: tumour blood flow/tumour vessel permeability; test: DCE-MRI of tumour blood flow/tumour vessel permeability; type: in vivo, human
Procedure: as §1, §2

[10] = tested on: human aortic smooth muscle cells; design: method as in printed; settings: background statement, ref not given; cited from earlier work
[11] = tested on: major human CYP isoforms; design: method as in printed; settings: at therapeutically relevant concentrations; background statement, ref not given; cited from earlier work
[12] = tested on: cytochrome P450 (CYP) isoforms; design: method as in printed; settings: background statement, ref not given, cited from earlier work
[13] = tested on: IL-8; test: Plasma IL-8 level; type: in vivo, human; settings: after 14 days of multiple dosing
Procedure: The relative changes between cycle 1, day 14 and baseline were calculated for VEGF, sVEGFR-2, bFGF, IL-8, tumour blood flow and tumour vessel permeability as measured by DCE-MRI and diastolic blood pressure (Figure 2C). […] The changes in VEGF and sVEGFR-2 plasma levels, the decrease in tumour blood flow and permeability and the increase in diastolic blood pressure were not predictive for the clinical outcome; there were no statistically significant differences in the change of biomarkers for patients who reached a progression-free survival of >3 months compared with those who stopped treatment during the first 3 months due to progressive disease.

[14] = tested on: bFGF; test: Plasma bFGF concentration (ELISA); type: in vivo, human; settings: after 14 days of multiple dosing
Procedure: as §1, §2

[15] = tested on: H460 non-small cell lung carcinoma; design: method as in printed; settings: H460 non-small cell lung carcinoma model; background statement, ref not given; cited from earlier work
[16] = tested on: MDA-MB-231 breast carcinoma; design: method as in printed; settings: MDA-MB-231 breast carcinoma model; background statement, ref not given; cited from earlier work
[17] = telatinib in plasma, day 14 cycle 1, 75 mg BID oral, 25 mg mesylate tablet, n=4, geometric mean (%CV)
[18] = telatinib in plasma, day 14 cycle 1, 150 mg BID oral, 25 mg mesylate tablet, n=6, geometric mean (%CV)
[19] = telatinib in plasma, day 14 cycle 1, 300 mg BID oral, 25 mg mesylate tablet, n=6, geometric mean (%CV)
[20] = telatinib in plasma, day 14 cycle 1, 600 mg BID oral, 150 mg mesylate tablet, n=11, geometric mean (%CV)
[21] = telatinib in plasma, day 14 cycle 1, 900 mg BID oral, 150 mg mesylate tablet, n=12, geometric mean (%CV)
[22] = telatinib in plasma, day 14 cycle 1, 1200 mg BID oral, 150 mg mesylate tablet, n=6, geometric mean (%CV)
[23] = telatinib in plasma, day 14 cycle 1, 1500 mg BID oral, 150 mg mesylate tablet, n=12, geometric mean (%CV)

CNC(=O)c1cc(COc2nnc(Nc3ccc(Cl)cc3)c3ccoc23)ccn1 [telatinib]
Relative bioavailability ([1]; 150 mg tablet formulation compared with 25 mg tablet formulation): less when compared with the 25 mg tablet formulation | Dose proportionality of geometric mean Cmax and AUC0−12 ([1]; BID dosing, plateaued in the 900–1500 mg BID dose range): less than dose-proportional | Increase in geometric mean Cmax between dose levels ([1]; between the 300 and 600 mg BID dose level): two-fold | half-life ([1]; plasma, oral, telatinib, across dose levels, discussion statement, read-out: half-life): 6.6 to 10.9 h | Tmax ([1]; plasma, telatinib, oral, BID dosing, read-out: median tmax): ≤ 3 h | Cmax [1, 17]: 212 ng/mL | AUC(0-t) [1, 17]: 1390 ng·h/mL | AUC [1, 17]: 1380 ng·h/mL | half-life ([1]; telatinib in plasma, day 14 cycle 1, 75 mg BID oral, 25 mg mesylate tablet, n=4, geometric mean (%CV), read-out: t1/2 (converted)): 7.4 h | Tmax ([1]; telatinib in plasma, day 14 cycle 1, 75 mg BID oral, 25 mg mesylate tablet, n=4, median (range), read-out: tmax): 2.1 h | Cmax [1, 18]: 219 ng/mL | AUC(0-t) [1, 18]: 1730 ng·h/mL | AUC [1, 18]: 1750 ng·h/mL | half-life ([1]; telatinib in plasma, day 14 cycle 1, 150 mg BID oral, 25 mg mesylate tablet, n=6, geometric mean (%CV), read-out: t1/2 (converted)): 10.9 h | Tmax ([1]; telatinib in plasma, day 14 cycle 1, 150 mg BID oral, 25 mg mesylate tablet, n=6, median (range), read-out: tmax): 3 h | AUC(0-t) ([1]; telatinib in plasma, day 14 cycle 1, 300 mg BID oral, 25 mg mesylate tablet, n=6 (sample size reduced by 2), geometric mean (%CV)): 2860 ng·h/mL | half-life ([1]; telatinib in plasma, day 14 cycle 1, 300 mg BID oral, 25 mg mesylate tablet, n=6 (sample size reduced by 2), geometric mean (%CV), read-out: t1/2 (converted)): 8 h | Cmax [1, 19]: 389 ng/mL | AUC [1, 19]: 1920 ng·h/mL | Tmax ([1]; telatinib in plasma, day 14 cycle 1, 300 mg BID oral, 25 mg mesylate tablet, n=6, median (range), read-out: tmax): 1.5 h | Cmax [1, 20]: 810 ng/mL | AUC(0-t) [1, 20]: 5430 ng·h/mL | AUC [1, 20]: 5430 ng·h/mL | half-life ([1]; telatinib in plasma, day 14 cycle 1, 600 mg BID oral, 150 mg mesylate tablet, n=11, geometric mean (%CV), read-out: t1/2 (converted)): 8.7 h | Tmax ([1]; telatinib in plasma, day 14 cycle 1, 600 mg BID oral, 150 mg mesylate tablet, n=11, median (range), read-out: tmax): 2.1 h | half-life ([1]; telatinib in plasma, day 14 cycle 1, 900 mg BID oral, 150 mg mesylate tablet, n=12 (sample size reduced by 2), geometric mean (%CV), read-out: t1/2 (converted)): 5.6 h | Cmax [1, 21]: 1280 ng/mL | AUC(0-t) [1, 21]: 7300 ng·h/mL | AUC [1, 21]: 7410 ng·h/mL | Tmax ([1]; telatinib in plasma, day 14 cycle 1, 900 mg BID oral, 150 mg mesylate tablet, n=12, median (range), read-out: tmax): 2 h | Cmax [1, 22]: 1140 ng/mL | AUC(0-t) [1, 22]: 7260 ng·h/mL | AUC [1, 22]: 7100 ng·h/mL | half-life ([1]; telatinib in plasma, day 14 cycle 1, 1200 mg BID oral, 150 mg mesylate tablet, n=6, geometric mean (%CV), read-out: t1/2 (converted)): 5.6 h | Tmax ([1]; telatinib in plasma, day 14 cycle 1, 1200 mg BID oral, 150 mg mesylate tablet, n=6, median (range), read-out: tmax): 2.5 h | Cmax [1, 23]: 964 ng/mL | AUC(0-t) [1, 23]: 6290 ng·h/mL | AUC [1, 23]: 6170 ng·h/mL | half-life ([1]; telatinib in plasma, day 14 cycle 1, 1500 mg BID oral, 150 mg mesylate tablet, n=12, geometric mean (%CV), read-out: t1/2 (converted)): 6.6 h | Tmax ([1]; telatinib in plasma, day 14 cycle 1, 1500 mg BID oral, 150 mg mesylate tablet, n=12, median (range), read-out: tmax): 2.5 h | median tmax ([1]; telatinib, oral, 75 mg BID to 1500 mg BID dose range): ≤ 3 h | drug–drug interactions due to displacement from plasma protein-binding sites [2]: unlikely | VEGFR-2 tyrosine kinase activity [3]: potent inhibitor | drug–drug interactions due to modulation of p-glycoprotein transporter activity [4]: unlikely | PDGFR-β tyrosine kinase activity [5]: potent inhibitor | tumour growth in vivo [6]: potent, dose-dependent reduction in tumour growth | sVEGFR-2 levels [7]: dose-dependent decrease | VEGF levels ([8]; day 21 compared to baseline): increased | VEGF plasma levels ([8]; within 8 h after the first telatinib administration): dose-dependent short-term increase | iAUC60 for the gadolinium curve ([9]; DCE-MRI, dose levels of 300 mg BID or higher): decrease | telatinib AUC0−12 at which substantial decreases in the gadolinium iAUC60 ratio were observed ([9]; day 14 of cycle 1): about 4 mg h l^−1 | total daily dose at which substantial decreases in the gadolinium iAUC60 ratio were observed ([9]; day 14 of cycle 1): ≥ 600 mg | PDGF-stimulated growth [10]: inhibited | inhibitory and inductive potential on major human CYP isoforms [11]: neither an inhibitory nor an inductive potential | main target of metabolic degradation [12]: N-methyl group | risk of drug–drug interactions ([12]; human microsomes, hepatocytes or single CYP isoforms): no or only a very low risk of drug–drug interactions | biotransformation by CYP isoforms ([12]; in vitro): metabolised by various CYP isoforms | IL-8 plasma levels [13]: no relevant changes | bFGF plasma levels [14]: no relevant changes | tumour growth in vivo [15]: potent, dose-dependent reduction in tumour growth | tumour growth in vivo [16]: potent, dose-dependent reduction in tumour growth
